Assay results published in US9365522B2, “Pyrazole amide derivative” (AMGEN INC., priority 2015, dated 2016).

What follows are compounds tested against T1, ligand binding domain of human ROR gamma (Homo sapiens, UniProt P51449) (assay: ROR gamma reporter gene assay (GAL4-RORγ LBD luciferase, Dual-Glo)). Details: HEK293T cells transfected with pM-ROR gamma, 8 concentrations 3.5 nM to 10.5 μM, 24 h incubation; read-out: result (pIC50, inhibition of RORγ transcriptional activity) (converted).
T1 construct: NM_001001523; expressed in transfected cells; host or cells: HEK293T
T1 sequence (P51449 247-497 isoform P51449-2): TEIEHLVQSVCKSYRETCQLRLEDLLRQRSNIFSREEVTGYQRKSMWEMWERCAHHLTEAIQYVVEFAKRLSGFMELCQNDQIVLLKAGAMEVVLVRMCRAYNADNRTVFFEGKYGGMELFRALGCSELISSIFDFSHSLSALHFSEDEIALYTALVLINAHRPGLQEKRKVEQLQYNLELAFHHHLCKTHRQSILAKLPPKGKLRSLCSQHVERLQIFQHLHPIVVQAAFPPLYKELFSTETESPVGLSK
Assay type: cell-based
Description: Luciferase reporter gene assay was used to assess inhibition of RORγ transcriptional activity.
ROR gamma expression vector was prepared by inserting the ligand binding domain of human ROR gamma (amino acid 247-497 of Genbank Accession NO. NM_001001523) adjacent to the yeast GAL4 transcription factor DNA binding domain in the expression vector pM (Clontech). The resulting expression vector pM-ROR gamma was used in transfection experiments together with the pGL4 luciferase reporter plasmid (Promega) containing five copies of the UAS GAL4 recognition site and pRL-CMV plasmids (Promega) containing the constitutive CMV promoter and the renilla luciferase.
For preparing transfection reagent/DNA mixture, 1 μg pM-ROR gamma, 1 μg pGL4 5×UAS, 625 pg pRL-CMV and 6.25 μL FuGENE™ HD transfection reagent (Promega) were mixed in 0.25 mL OPTI-MEM™ (Life technologies) at room temperature. At the same time, Negative control DNA mixture was prepared by using 1 μg pM empty vector instead of pM-ROR gamma plasmid. After a fifteen minute incubation, 0.25 mL of transfection reagent/DNA mixture was added to 1,000,000 of HEK293T cells (ATCC) in 5 mL of OPTI-MEM™ containing 10% Charcoal Stripped Fetal Bovine Serum.
Transfected cells were seeded onto 384 well plate (10 μL/well) and the 7.5 nL of test compounds were added to the wells in 8 concentrations ranging from 3.5 nM to 10.5 μM. The compounds were dissolved in 100% DMSO and the final concentration of DMSO in the assay was 0.075%.
After 24 h of incubation at 37° C., 5% CO2 in a cell culture incubator, the Dual-Glo™ Luciferase Assay System was used to detect activity according to the manufacturer's instructions (Promega, Cat. No.: E2920).
Data was plotted and pIC50 values were calculated using the XLfit program (ID Business Solutions Ltd.).
In the case of `Nc1cccc(Cl)c1C(=O)CN(Cc1cc(F)cc(F)c1)C(=O)c1cnn([C@H]2CC[C@H](C(=O)O)CC2)c1C(F)(F)F` [Example 11, trans-4-(4-((2-(2-amino-6-chlorophenyl)-2-oxoethyl)(3,5-difluorobenzyl)carbamoyl)-5-(trifluoromethyl)-1H-pyrazol-1-yl)cyclohexanecarboxylic acid], the IC50 is reported as 38000 pM. `CC(=O)Nc1cccc(Cl)c1C(=O)CN(Cc1cc(F)cc(F)c1)C(=O)c1cnn([C@H]2CC[C@H](C(=O)O)CC2)c1C(F)(F)F` [Example 13, trans-4-(4-((2-(2-acetamido-6-chlorophenyl)-2-oxoethyl)(3,5-difluorobenzyl)carbamoyl)-5-(trifluoromethyl)-1H-pyrazol-1-yl)cyclohexanecarboxylic acid] was tested, and the IC50 was 93300 pM. `O=C(CN(Cc1cc(F)cc(F)c1)C(=O)c1cnn([C@H]2CC[C@H](C(=O)O)CC2)c1C(F)(F)F)c1c(O)cccc1Cl` [Example 15, trans-4-(4-((2-(2-chloro-6-hydroxyphenyl)-2-oxoethyl)(3,5-difluorobenzyl)carbamoyl)-5-(trifluoromethyl)-1H-pyrazol-1-yl)cyclohexanecarboxylic acid] showed an IC50 of 95500 pM. Work on `CC1(C)CC[C@H](CN(CC(=O)c2c(Cl)cncc2Cl)C(=O)c2cnn([C@H]3CC[C@H](C(=O)O)CC3)c2C(F)(F)F)O1` [Example 16, trans-4-(4-((2-(3,5-dichloropyridin-4-yl)-2-oxoethyl)(((R)-5,5-dimethylTHF-2-yl)methyl)carbamoyl)-5-(trifluoromethyl)-1H-pyrazol-1-yl)cyclohexanecarboxylic acid] yielded an IC50 of 117000 pM. Work on `O=C(CN(Cc1cc(F)cc(F)c1)C(=O)c1cnn([C@H]2CC[C@H](C(=O)O)CC2)c1C1CC1)c1c(Cl)cncc1Cl` [Example 17, trans-4-(5-cyclopropyl-4-((2-(3,5-dichloropyridin-4-yl)-2-oxoethyl)(3,5-difluorobenzyl)carbamoyl)-1H-pyrazol-1-yl)cyclohexanecarboxylic acid] yielded an IC50 of 24500 pM. `O=C(CN(Cc1cc(F)cc(F)c1)C(=O)c1cnn([C@H]2CC[C@H](C(=O)O)CC2)c1C(F)(F)F)c1c(Cl)cc(C(F)F)cc1Cl` [Example 18, trans-4-(4-((2-(2,6-dichloro-4-(difluoromethyl)phenyl)-2-oxoethyl)(3,5-difluorobenzyl)carbamoyl)-5-(trifluoromethyl)-1H-pyrazol-1-yl)cyclohexanecarboxylic acid] showed an IC50 of 11700 pM. For `CC1(O)CCC(CN(CC(=O)c2c(Cl)cncc2Cl)C(=O)c2cnn([C@H]3CC[C@H](C(=O)O)CC3)c2C(F)(F)F)CC1` (stereo partly drawn) [Example 19, trans-4-(4-((2-(3,5-dichloropyridin-4-yl)-2-oxoethyl)((4-hydroxy-4-methylcyclohexyl)methyl)carbamoyl)-5-(trifluoromethyl)-1H-pyrazol-1-yl)cyclohexanecarboxylic acid], the IC50 was > 1e+07 pM. Compound `O=C(CN(Cc1cc(F)cc(F)c1)C(=O)c1cnn([C@H]2CC[C@H](C(=O)O)CC2)c1C(F)F)c1c(Cl)cncc1Cl` [Example 20, trans-4-(4-((2-(3,5-Dichloropyridin-4-yl)-2-oxoethyl)(3,5-difluorobenzyl)carbamoyl)-5-(difluoromethyl)-1H-pyrazol-1-yl)cyclohexanecarboxylic acid] has an IC50 of 70800 pM. `Nc1nccc(Cl)c1C(=O)CN(Cc1cc(F)cc(F)c1)C(=O)c1cnn([C@H]2CC[C@H](C(=O)O)CC2)c1C(F)(F)F` [Example 21, trans-4-(4-((2-(2-amino-4-chloropyridin-3-yl)-2-oxoethyl)(3,5-difluorobenzyl)carbamoyl)-5-(trifluoromethyl)-1H-pyrazol-1-yl)cyclohexanecarboxylic acid] was tested, and the IC50 was > 1e+07 pM. In the case of `N#Cc1ccccc1CN(CC(=O)c1c(Cl)cncc1Cl)C(=O)c1cnn([C@H]2CC[C@H](C(=O)O)CC2)c1C(F)(F)F` [Example 22, trans-4-(4-((2-cyanobenzyl)(2-(3,5-dichloropyridin-4-yl)-2-oxoethyl)carbamoyl)-5-(trifluoromethyl)-1H-pyrazol-1-yl)cyclohexanecarboxylic acid], the IC50 is reported as > 1e+07 pM. Compound `CC1(C)CC(CN(CC(=O)c2c(Cl)cncc2Cl)C(=O)c2cnn([C@H]3CC[C@H](C(=O)O)CC3)c2C(F)(F)F)C1` [Example 23, trans-4-(4-((2-(3,5-dichloropyridin-4-yl)-2-oxoethyl)((3,3-dimethylcyclobutyl)methyl)carbamoyl)-5-(trifluoromethyl)-1H-pyrazol-1-yl)cyclohexanecarboxylic acid] has an IC50 of 24000 pM. Compound `O=C(O)C1CCC(n2ncc(C(=O)N(CCc3c(Cl)cncc3Cl)Cc3ccc(F)cc3)c2C(F)(F)F)CC1` (stereo not drawn) [Example 24, 4-(4-((2-(3,5-dichloropyridin-4-yl)ethyl)(4-fluorobenzyl)carbamoyl)-5-(trifluoromethyl)-1H-pyrazol-1-yl)cyclohexanecarboxylic acid] has an IC50 of 166000 pM. `O=C(CN(Cc1ccc(F)cc1)C(=O)c1cnn([C@H]2CC[C@@H](C(=O)O)CC2)c1C(F)(F)F)c1c(Cl)cncc1Cl` [Example 25, cis-4-(4-((2-(3,5-dichloropyridin-4-yl)-2-oxoethyl)(4-fluorobenzyl)carbamoyl)-5-(trifluoromethyl)-1H-pyrazol-1-yl)cyclohexaneca rboxylic acid] showed an IC50 of 263000 pM. Compound `CC(C)CN(CC(=O)c1c(Cl)cncc1Cl)C(=O)c1cnn([C@H]2CC[C@H](C(=O)O)CC2)c1C(F)(F)F` [Example 26, trans-4-(4-((2-(3,5-dichloropyridin-4-yl)-2-oxoethyl)(isobutyl)carbamoyl)-5-(trifluoromethyl)-1H-pyrazol-1-yl)cyclohexanecarboxylic acid] has an IC50 of 282000 pM. In the case of `CC(C)(C)CN(CC(=O)c1c(Cl)cncc1Cl)C(=O)c1cnn([C@H]2CC[C@H](C(=O)O)CC2)c1C(F)(F)F` [Example 27, trans-4-(4-((2-(3,5-dichloropyridin-4-yl)-2-oxoethyl)(neopentyl)carbamoyl)-5-(trifluoromethyl)-1H-pyrazol-1-yl)cyclohexanecarboxylic acid], the IC50 is reported as 56200 pM. In the case of `O=C(CN(CC1CCC1)C(=O)c1cnn([C@H]2CC[C@H](C(=O)O)CC2)c1C(F)(F)F)c1c(Cl)cncc1Cl` [Example 28, trans-4-(4-((cyclobutylmethyl)(2-(3,5-dichloropyridin-4-yl)-2-oxoethyl)carbamoyl)-5-(trifluoromethyl)-1H-pyrazol-1-yl)cyclohexanecarboxylic acid], the IC50 is reported as 195000 pM. With `O=C(CN(CC1CCCC1)C(=O)c1cnn([C@H]2CC[C@H](C(=O)O)CC2)c1C(F)(F)F)c1c(Cl)cncc1Cl` [Example 29, trans-4-(4-((cyclopentylmethyl)(2-(3,5-dichloropyridin-4-yl)-2-oxoethyl)carbamoyl)-5-(trifluoromethyl)-1H-pyrazol-1-yl)cyclohexanecarboxylic acid] the IC50 was 75900 pM. With `O=C(CN(CC1CCCCC1)C(=O)c1cnn([C@H]2CC[C@H](C(=O)O)CC2)c1C(F)(F)F)c1c(Cl)cncc1Cl` [Example 30, trans-4-(4-((cyclohexylmethyl)(2-(3,5-dichloropyridin-4-yl)-2-oxoethyl)carbamoyl)-5-(trifluoromethyl)-1H-pyrazol-1-yl)cyclohexanecarboxylic acid] the IC50 was 46800 pM. For `CC1(CN(CC(=O)c2c(Cl)cncc2Cl)C(=O)c2cnn([C@H]3CC[C@H](C(=O)O)CC3)c2C(F)(F)F)CC1` [Example 31, trans-4-(4-((2-(3,5-dichloropyridin-4-yl)-2-oxoethyl)((1-methylcyclopropyl)methyl)carbamoyl)-5-(trifluorornethyl)-1H-pyrazol-1-yl)cyclohexanecarboxylic acid], the IC50 was 77600 pM. With `CC(C)CCN(CC(=O)c1c(Cl)cncc1Cl)C(=O)c1cnn([C@H]2CC[C@H](C(=O)O)CC2)c1C(F)(F)F` [Example 32, trans-4-(4-((2-(3,5-dichloropyridin-4-yl)-2-oxoethyl)(isopentyl)carbamoyl)-5-(trifluorornethyl)-1H-pyrazol-1-yl)cyclohexanecarboxylic acid] the IC50 was 81300 pM.

Same assay, conditions: result (pIC50, inhibition of RORγ transcriptional activity), HEK293T cells transfected with pM-ROR gamma, 8 concentrations 3.5 nM to 10.5 μM, 24 h incubation
For `O=C(CN(Cc1cc(F)cc(F)c1)C(=O)c1cnn([C@H]2CC[C@H](C(=O)O)CC2)c1C(F)(F)F)c1c(O)nc(O)nc1O` [Example 12, trans-4-(4-((3,5-difluorobenzyl)(2-oxo-2-(2,4,6-trihydroxypyrimidin-5-yl)ethyl)carbamoyl)-5-(trifluoromethyl)-1H-pyrazol-1-yl)cyclohexanecarboxylic acid], the IC50 was 3.72e+06 pM.
